Source: ChEMBL document CHEMBL1139727, “A novel series of imidazo[1,2-a]pyridine derivatives as HIF-1alpha prolyl hydroxylase inhibitors” (Bioorg Med Chem Lett, 2006)

Target: Egl nine homolog 1 (Homo sapiens, UniProt Q9GZT9)
Assay: Inhibition of human EGLN1

Egl nine homolog 1, sequence (Q9GZT9 whole entry): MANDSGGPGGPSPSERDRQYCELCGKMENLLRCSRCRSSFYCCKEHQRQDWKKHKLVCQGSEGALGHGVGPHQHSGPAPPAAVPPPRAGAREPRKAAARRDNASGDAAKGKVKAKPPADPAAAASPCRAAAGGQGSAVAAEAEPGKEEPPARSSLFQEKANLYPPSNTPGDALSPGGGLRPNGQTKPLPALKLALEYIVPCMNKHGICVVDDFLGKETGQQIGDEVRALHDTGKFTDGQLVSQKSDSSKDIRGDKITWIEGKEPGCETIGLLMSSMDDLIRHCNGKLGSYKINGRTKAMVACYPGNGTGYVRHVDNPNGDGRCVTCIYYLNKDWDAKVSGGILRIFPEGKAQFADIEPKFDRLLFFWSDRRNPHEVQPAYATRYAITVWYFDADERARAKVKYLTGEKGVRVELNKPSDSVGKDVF

Molecule `Cc1cccc(-c2ccc3nc(C(=O)NCC(=O)O)cn3c2)c1` has an IC50 of over 100 µM.
